The assay deals with PC12 rat cells, thapsigargin death, ATPlite luminescence, 24 h. Briefly: protection from thapsigargin-triggered PC12 cell death, SAR follow-up, undifferentiated PC12, rat pheochromocytoma, ATP luminescence (AID 1346). The settings on record: at 25 µM, stronger effect = higher value.
[1] abbreviates: measured here: survival at 0.25 uM thapsigargin.
[2] abbreviates: measured here: survival at 1 uM thapsigargin.

The record followed here is PubChem BioAssay AID1346 (Sanford-Burnham Center for Chemical Genomics, 2008).

The structures appear in SMILES notation. Calls of active or inactive are those of the source.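 How the source made its calls: active means compounds whose cell survival under thapsigargin stays above the level of untreated control cells; inactive means the rest, which was every compound here.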

As for `COc1ccc(C2CC(=O)C3=C(C2)Nc2ccccc2NC3c2cccc(Oc3ccccc3)c2)cc1OC` (stereo not drawn), the survival is 49% (inactive). Under setting [1], the survival came to 29%. Moreover, the survival under setting [2] was 28%.
In the same order, the values of `COc1ccc(C2CC(=O)C3=C(C2)Nc2ccccc2NC3c2cccc(C(F)(F)F)c2)cc1OC` (stereo not drawn) are 26% (inactive), 25% and 23%.
Taken in the same sequence, the figures for `COc1ccc(C2CC(=O)C3=C(C2)Nc2ccccc2NC3c2cccc(Br)c2)cc1OC` (stereo not drawn) were 31% (inactive), 25% and 21%.
Taken in the same sequence, the figures for `COc1ccc(C2CC(=O)C3=C(C2)Nc2ccccc2NC3c2cc(C)ccc2C)cc1` (stereo not drawn) were 25% (inactive), 27% and 26%.
Turning to `CCOc1cccc(C2Nc3ccccc3NC3=C2C(=O)CC(c2ccc(OC)cc2)C3)c1` (stereo not drawn), the survival is 30% (inactive). Further, under setting [1], the survival worked out at 18%. The molecule further displayed a survival under setting [2] of 14%.
In the same order, the values of `CCOc1cc(C2Nc3ccccc3NC3=C2C(=O)CC(c2ccc(OC)cc2)C3)cc(Cl)c1O` (stereo not drawn) are 26% (inactive), 38% and 35%.
Regarding `O=C1CC(c2ccccc2)CC2=C1C(c1c(F)cccc1Cl)Nc1ccccc1N2` (stereo not drawn), the survival was 22% (inactive). For the same molecule, under setting [1], the survival was 34%. This molecule also returned a survival under setting [2] of 24%.
Take `CSc1ccc(C2Nc3ccccc3NC3=C2C(=O)CC(c2ccccc2)C3)cc1` (stereo not drawn): the survival was 31% (inactive). Besides, the survival under setting [1] was 23%. Besides, the survival under setting [2] amounted to 19%.
Taken in the same sequence, the figures for `CC1(C)CC(=O)C2=C(C1)Nc1ccccc1NC2c1ccc(-c2ccccc2)cc1` (stereo not drawn) were 37% (inactive), 33% and 29%.
As for `CCCOc1ccc(C2Nc3ccccc3NC3=C2C(=O)CC(c2ccc(OC)c(OC)c2)C3)cc1` (stereo not drawn), the survival is 25% (inactive). Under setting [1], this molecule came in with a survival of 28%. Moreover, the survival under setting [2] was 26%.
Taken in the same sequence, the figures for `COc1ccc(C2CC(=O)C3=C(C2)Nc2ccccc2NC3c2ccccc2C(F)(F)F)cc1OC` (stereo not drawn) were 30% (inactive), 26% and 24%.
